The subject of data set [1] is pGlu-Aβ3-42 in transgenic (tg) mice, which overexpress human AβQ3-42. Briefly: Treatment of Aβ-transgenic mice, pGlu-Aβ ELISA of brain homogenates. The data set is classed as in vivo. As for the experimental part:
6 (1-(1H-benzo[d]imidazol-5-yl)-5-(4-propoxyphenyl)imidazolidine-2,4-dion). Example compound 6 was implemented into the chow and the transgenic animals were treated orally. The treatment is specified in the table below. The mice used in this study were produced as described in WO 2009/034158.
Following treatment, tg mice were sacrificed, the brains were removed from the skull, flushed with ice cold saline and placed shortly on filter paper. Brain tissues without cerebellum were homogenized (Dounce homogenizer) in 2.5 ml 2% SDS in distilled water (SDS wash fraction), sonificated and centrifuged at 75,500×g for 1 hour at 4° C. The supernatant was removed and the pellet resuspended in 0.5 ml 70% formic acid (formic acid fraction) and neutralized by addition of 9.5 ml 1 M Tris solution. The formic acid (FA) is considered as the homogenate containing the highly insoluble Aβ peptides, including pGlu-Aβ species (Kawarabayashi et al., (2001), J. Neurosci. 21, 372-381). Aβx-40, Aβx-42 and Aβ3(pE)-42 specific sandwich ELISAs (all from IBL, Hamburg, Germany) were performed according to the manufacturer's manual. Samples were diluted to fit within the range of the standard curve using EIA buffer, which is supplied with the ELISA kits.

The nature of data set [2]: Log BB screen: brain compound level and log BB in mice. To be noted: single i.v. injection; for concentration at 1 h: iv, 10 mg/ml, mouse, brain, read-out: Brain concentration 1 h after application. Format: in vivo. As for the experimental part:
Screening for brain compound level and log BB was done in mice. Compound was applied by a single i.v. injection. […] At least 3 animals were analyzed per compound. Animals were sacrificed 1 h after compound application and blood was collected by heart puncture. Serum was prepared from blood. Animals were perfused with PBS and brains were collected. Compound level in serum and brain were determined by HPLC-MS/MS analysis. Log BB were calculated as follows: [formula]

For `CCCOc1ccc(C2C(=O)NC(=O)N2c2ccc3[nH]cnc3c2)cc1` (racemic) [Example 6, 1-(1H-benzo[d]imidazol-5-yl)-5-(4-propoxyphenyl)imidazolidine-2,4-dione], in data set [1] (tg mice treated orally via chow (4.8 g/kg) for two months, vs placebo), the “pGlu-Aβ3-42 concentration in formic acid extracts” value was “significant reduction”. Besides, the “pGlu-Aβ3-42 concentration in formic acid extracts, brainstem” value in data set [1] (tg mice treated orally via chow for two months, brainstem) is listed as “below the limit of detection”. In data set [2], the concentration at 1 h is 126 ng/g and the “logBB mouse 1 h after i.v. injection” value is reported as −1.6.

As to `O=C1NC(=O)N(c2ccc3[nH]cnc3c2)C1c1ccc2nsnc2c1` (stereo not shown) [Example 1, 5-(benzo[c][1,2,5]thiadiazol-6-yl)-1-(1H-benzo[d]imidazol-5-yl)imidazolidine-2,4-dione], in data set [2], the concentration at 1 h is 118 ng/g and the “logBB mouse 1 h after i.v. injection” value was −0.67.

On to `Cc1ccc(O)c(C2C(=O)NC(=O)N2c2ccc3[nH]cnc3c2)c1` (stereo not shown) [Example 3, 1-(1H-benzo[d]imidazol-5-yl)-5-(2-hydroxy-5-methylphenyl)imidazolidine-2,4-dione], for which, in data set [2], the concentration at 1 h was 17.1 ng/g and the “logBB mouse 1 h after i.v. injection” value is listed as −1.42.

With `O=C1NC(=O)N(c2ccc3[nH]cnc3c2)C1c1ccc(Cl)c(C(F)(F)F)c1` (stereo not shown) [Example 7, 1-(1H-benzo[d]imidazol-5-yl)-5-(4-chloro-3-(trifluoromethyl)phenyl)imidazolidine-2,4-dione], in data set [2], the concentration at 1 h amounted to 38.2 ng/g and the “logBB mouse 1 h after i.v. injection” value is recorded as −2.5.

For `O=C1NC(=O)N(c2ccc3[nH]cnc3c2)C1c1ccc(Cl)cc1` (stereo not shown) [Example 13, 1-(1H-benzo[d]imidazol-5-yl)-5-(4-chlorophenyl)imidazolidine-2,4-dione], in data set [2], the concentration at 1 h amounted to 31.4 ng/g and the “logBB mouse 1 h after i.v. injection” value was −1.4.

As to `O=C1NC(=O)N(c2ccc3[nH]cnc3c2)C1c1ccccc1Cl` (stereo not shown) [Example 14, 1-(1H-benzo[d]imidazol-5-yl)-5-(2-chlorophenyl)imidazolidine-2,4-dione], in data set [2], the concentration at 1 h is 20.2 ng/g and the “logBB mouse 1 h after i.v. injection” value is on record as −1.6.

With `O=C1NC(=O)C2(Cc3ccccc3C2)N1c1ccc2[nH]cnc2c1` [Example 32, 3-(1H-benzimidazol-5-yl)-1,3′-dihydro-2H,5H-spiro[imidazolidine-4,2′-indene]-2,5-dione], in data set [2], the concentration at 1 h is 11.7 ng/g and the “logBB mouse 1 h after i.v. injection” value is on record as −1.2.

These data come from US8962860B2, “Inhibitors of glutaminyl cyclase” (Probiodrug AG, priority 2008, dated 2015).
